Measurements from the supplement of paper PMC13207355.

How the values were obtained:
Details in all cases: exposure time: 72 h
[1] = tested on: FT3469 (normal neural stem cell line); assay: phenotypic distance (Euclidean, principal components) from DMSO controls (arbitrary units); higher = stronger morphological change
[2] = tested on: E34 (patient-derived glioblastoma stem cells of proneural subtype); assay: as above
[3] = tested on: E13 (patient-derived glioblastoma stem cells of classical subtype); assay: as above
[4] = tested on: E28 (patient-derived glioblastoma stem cells of classical subtype); assay: as above
[5] = tested on: E31 (patient-derived glioblastoma stem cells of proneural subtype); assay: as above
[6] = tested on: E57 (patient-derived glioblastoma stem cells of mesenchymal subtype); assay: as above
[7] = tested on: E21 (patient-derived glioblastoma stem cells of mesenchymal subtype); assay: as above
[8] = tested on: FT3469; assay: surviving fraction (nuclei count normalised to DMSO); higher = more cells surviving (less toxic)
[9] = tested on: E34; assay: as above
[10] = tested on: E13; assay: as above
[11] = tested on: E28; assay: as above
[12] = tested on: E31; assay: as above
[13] = tested on: E57; assay: as above
[14] = tested on: E21; assay: as above
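Wherever phenotypic distance (Euclidean, principal components) from DMSO controls is given: cell Painting imaging in 384-well plates, CellProfiler features reduced to at least 20 principal components, Euclidean distance versus same-plate DMSO vehicle wells (0.1% v/v), median over six images per well.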
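Wherever surviving fraction (nuclei count normalised to DMSO) is given: nuclei counted by high-content imaging of Hoechst-stained cells in laminin-coated 384-well plates, relative to 0.1% DMSO vehicle wells, with staurosporine as cell-death control.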

In the case of `Nc1nc(=O)c2nc(CNc3ccc(C(=O)N[C@@H](CCC(=O)O)C(=O)O)cc3)cnc2[nH]1` [Folic acid], the phenotypic distance ([1]; 4.1 nM) is reported as 0.931, the phenotypic distance ([1]; 12.3 nM) is reported as 0.68 and the phenotypic distance ([1]; 37 nM) is reported as 0.676. For the same compound, the phenotypic distance ([1]; 111.1 nM) was 0.509, the phenotypic distance ([1]; 333.3 nM) was 0.439 and the phenotypic distance ([1]; 1000 nM) was 1.06. For the same compound, the phenotypic distance ([1]; 3000 nM) was 0.675, the phenotypic distance ([2]; 4.1 nM) was 1.01 and the phenotypic distance ([2]; 12.3 nM) was 0.395. For the same compound, the phenotypic distance ([2]; 37 nM) was 0.531, the phenotypic distance ([2]; 111.1 nM) was 0.763 and the phenotypic distance ([2]; 333.3 nM) was 0.579. For the same compound, the phenotypic distance ([2]; 1000 nM) was 0.38, the phenotypic distance ([2]; 3000 nM) was 0.822 and the phenotypic distance ([3]; 4.1 nM) was 0.778. It also gave a phenotypic distance ([3]; 12.3 nM) of 0.355, a phenotypic distance ([3]; 37 nM) of 0.501 and a phenotypic distance ([3]; 111.1 nM) of 0.396. For the same compound, the phenotypic distance ([3]; 333.3 nM) was 0.695, the phenotypic distance ([3]; 1000 nM) was 0.593 and the phenotypic distance ([3]; 3000 nM) was 0.805. It also gave a phenotypic distance ([4]; 4.1 nM) of 0.522, a phenotypic distance ([4]; 12.3 nM) of 0.383 and a phenotypic distance ([4]; 37 nM) of 0.987. For the same compound, the phenotypic distance ([4]; 111.1 nM) was 0.572, the phenotypic distance ([4]; 333.3 nM) was 0.378 and the phenotypic distance ([4]; 1000 nM) was 0.745. For the same compound, the phenotypic distance ([4]; 3000 nM) was 0.583, the phenotypic distance ([5]; 4.1 nM) was 0.277 and the phenotypic distance ([5]; 12.3 nM) was 0.448. It also gave a phenotypic distance ([5]; 37 nM) of 0.256, a phenotypic distance ([5]; 111.1 nM) of 0.408 and a phenotypic distance ([5]; 333.3 nM) of 0.439. The phenotypic distance ([5]; 1000 nM) was 0.452, the phenotypic distance ([5]; 3000 nM) was 0.335 and the phenotypic distance ([6]; 4.1 nM) was 0.364. For the same compound, the phenotypic distance ([6]; 12.3 nM) was 0.555, the phenotypic distance ([6]; 37 nM) was 0.5 and the phenotypic distance ([6]; 111.1 nM) was 0.927. It also gave a phenotypic distance ([6]; 333.3 nM) of 0.637, a phenotypic distance ([6]; 1000 nM) of 0.333 and a phenotypic distance ([6]; 3000 nM) of 0.748. The phenotypic distance ([7]; 4.1 nM) was 0.612, the phenotypic distance ([7]; 12.3 nM) was 0.186 and the phenotypic distance ([7]; 37 nM) was 0.499. The phenotypic distance ([7]; 111.1 nM) was 0.624, the phenotypic distance ([7]; 333.3 nM) was 0.464 and the phenotypic distance ([7]; 1000 nM) was 0.432. The phenotypic distance ([7]; 3000 nM) was 0.539, the surviving fraction ([8]; 4.1 nM) was 1.16 and the surviving fraction ([8]; 12.3 nM) was 1.03. The surviving fraction ([8]; 37 nM) was 1.12, the surviving fraction ([8]; 111.1 nM) was 1.01 and the surviving fraction ([8]; 333.3 nM) was 1.05. The surviving fraction ([8]; 1000 nM) was 1.1, the surviving fraction ([8]; 3000 nM) was 0.939 and the surviving fraction ([9]; 4.1 nM) was 1.15. The surviving fraction ([9]; 12.3 nM) was 1.03, the surviving fraction ([9]; 37 nM) was 0.979 and the surviving fraction ([9]; 111.1 nM) was 1.12. For the same compound, the surviving fraction ([9]; 333.3 nM) was 0.974, the surviving fraction ([9]; 1000 nM) was 1.04 and the surviving fraction ([9]; 3000 nM) was 0.925. The surviving fraction ([10]; 4.1 nM) was 0.982, the surviving fraction ([10]; 12.3 nM) was 1.06 and the surviving fraction ([10]; 37 nM) was 0.964. It also gave a surviving fraction ([10]; 111.1 nM) of 1, a surviving fraction ([10]; 333.3 nM) of 1.17 and a surviving fraction ([10]; 1000 nM) of 1.02. The surviving fraction ([10]; 3000 nM) was 1.21, the surviving fraction ([11]; 4.1 nM) was 0.971 and the surviving fraction ([11]; 12.3 nM) was 1.05. It also gave a surviving fraction ([11]; 37 nM) of 1.11, a surviving fraction ([11]; 111.1 nM) of 0.954 and a surviving fraction ([11]; 333.3 nM) of 1.01. For the same compound, the surviving fraction ([11]; 1000 nM) was 1.31, the surviving fraction ([11]; 3000 nM) was 0.925 and the surviving fraction ([12]; 4.1 nM) was 1.13. It also gave a surviving fraction ([12]; 12.3 nM) of 0.968, a surviving fraction ([12]; 37 nM) of 0.961 and a surviving fraction ([12]; 111.1 nM) of 0.969. It also gave a surviving fraction ([12]; 333.3 nM) of 1.03, a surviving fraction ([12]; 1000 nM) of 1.14 and a surviving fraction ([12]; 3000 nM) of 0.872. The surviving fraction ([13]; 4.1 nM) was 1.03, the surviving fraction ([13]; 12.3 nM) was 1.03 and the surviving fraction ([13]; 37 nM) was 0.994. The surviving fraction ([13]; 111.1 nM) was 0.948, the surviving fraction ([13]; 333.3 nM) was 1.01 and the surviving fraction ([13]; 1000 nM) was 1.03. For the same compound, the surviving fraction ([13]; 3000 nM) was 0.903, the surviving fraction ([14]; 4.1 nM) was 0.915 and the surviving fraction ([14]; 12.3 nM) was 1.07. The surviving fraction ([14]; 37 nM) was 1, the surviving fraction ([14]; 111.1 nM) was 1.07 and the surviving fraction ([14]; 333.3 nM) was 1.01. It also gave a surviving fraction ([14]; 1000 nM) of 1.07 and a surviving fraction ([14]; 3000 nM) of 0.972.
